# Measured values taken from publication PMC7794397, “Curbing gastrointestinal infections by defensin fragment modifications without harming commensal microbiota” (Communications Biology, 2021).
# Several values for one entry are separate records, joined by “and”; a condition that tells them apart may be missing. Identical values can stand only once. Residues, ends and D or L forms follow the SMILES beside them. *: point of attachment. Palmitoyl = CCCCCCCCCCCCCCCC(=O)*; AEEA = NCCOCCOCC(=O)O
# Experiments:
# S. aureus NCTC8325 [1] = assay: Bacterial membrane potential (DiOC2(3)); format: cell-based; settings: 30 min of treatment
# Method: For determination of membrane potential changes, S. aureus NCTC8325 was grown to log-phase in LB + 0.1% glucose, harvested and the optical density at 600 nm (OD600) was adjusted to 0.5. Bacteria were incubated with 30 µM 3,3′-diethyloxacarbocyanine iodide (DiOC2(3), Invitrogen™) for 15 min in the dark and treated with serial peptide concentrations for 30 min. The protonophore carbonyl cyanide m-chlorophenyl hydrazone (CCCP, Sigma Aldrich) was used as a positive control and DMSO or 0.01% acetic acid as negative controls. Fluorescence was measured at an excitation wavelength of 485 nm and two emission wavelengths, 530 nm (green) and 630 (nm) red, using a microplate reader (Tecan, Switzerland).
# E. faecium DSM2918 VRE = settings: DSM2918, 2 h
# Method: (§1) Bactericidal activity was assessed by broth microdilution assay. Log-phase bacteria were collected by centrifugation (2500 rpm, 10 min, 4 °C), washed twice with 10 mM sodium phosphate buffer containing 1% (w/v) TSB and the optical density at 600 nm was adjusted to 0.1. Approximately 5 × 10^5 CFU/ml bacteria were incubated with serial peptide concentrations (1.17–150 µM) in a final volume of 100 µl in 10 mM sodium phosphate buffer containing 1% (w/v) TSB for 2 h at 37 °C. After incubation, 100 µl of 6% TSB (w/v) were added and absorbance was measured at 600 nm (Tecan, Switzerland) and monitored for 18 h. Afterward, 100 µl per well were plated on LB agar to determine the numbers of viable bacteria microbiologically. Bactericidal activity is expressed as the LC99.9, the lowest concentration that killed ≥99.9 % of bacteria.
# E. coli 6940 3-MRGN = settings: 2 h
# Method: as §1
# [2] = system: P. aeruginosa DSM1117 4-MRGN; settings: DSM1117, 2 h
# Method: as §1
# [3] = system: A. baumannii DSM30007 4-MRGN
# Method: as §1
# S. aureus DSM20213 MRSA = settings: DSM20213, 2 h
# Method: as §1
# S. aureus NCTC8325 [4] = assay: Bacterial pore formation (SYTO9/propidium iodide); format: cell-based; settings: 37.5 µM Pam-3 (4x MIC), 10 min; Syto9 and propidium iodide
# Method: Pore formation was monitored using the Live/Dead BacLight bacterial viability kit (Molecular Probes)[60]. […] Samples were taken after 10 min of peptide treatment, then 0.2 µl of a 1:1 mixture of SYTO9 and propidium iodide (PI) was added and further incubated for 15 min at RT in the dark. […] Images were acquired with an Orca Flash 4.0 V2 camera (Hamamatsu), C Plan-Apo 63x/1.4 Oil DIC and alpha Plan-Apochromat 100x/1.46 Oil Ph3 objectives (Zeiss) and processed using the Zen software package (Zeiss).
# [5] = system: C. rodentium strain ICC180; assay: Citrobacter rodentium gastrointestinal infection in mice; format: in vivo, C57BL/6N mice
# Method: Bioluminescence expressing C. rodentium strain ICC180 was used for all infection experiments. C. rodentium inocula were prepared by culturing bacteria overnight at 37 °C in LB broth with 50 µg/ml kanamycin. Subsequently, the culture was diluted 1:100 in fresh medium, and sub-cultured for 4 h at 37 °C in LB broth. Bacteria were washed twice in phosphate-buffered saline (PBS). Mice were orally inoculated with 10^8 CFU of C. rodentium diluted in 200 µl PBS. Weight of the mice was monitored and feces were collected for measurements of the pathogen burden. After 5 days post infection mice received twice 250 µg peptide solved in 100 µl PBS or only PBS orally. The following day, mice were sacrificed to assess bacterial burden in the lumen and tissues of the cecum and the colon.
# All mice were euthanized by asphyxiation with CO2 at indicated time points. Intestinal tissues (small intestine, cecum, colon) were removed aseptically. To collect intestinal content, organs were flushed with PBS. Organs were opened longitudinally, cleaned thoroughly with PBS and weighted. Organs and content were homogenized in PBS using a Polytron homogenizer (Kinemtatica). Dilutions of homogenized samples were plated on LB plates containing 50 μg/ml kanamycin to determine CFUs.
# P. aeruginosa PAO1 = assay: Treatment of established biofilms; format: cell-based; parameters: viable bacteria in biofilm: unit not given here; settings: for viable bacteria in biofilm: 24 h old biofilm, 1 h treatment
# Method: Then, planktonic bacteria were removed by two wash steps with PBS. […] Afterward, adherent bacteria in each well were resuspended, and the number of viable bacteria was determined microbiologically. […] The biofilm degradation assay was performed in agreement with the original report describing this method first.
# [6] = two doses of 250 µg orally 5 days p.i., following day, individual animals, N = 11
smiles,measurement,setting,value
CCCCCCCCCCCCCCCC(=O)NCCOCCOCC(=O)N[C@@H](CCCNC(=N)N)C(=O)NCC(=O)N[C@@H](CCCCN)C(=O)N[C@@H](C)C(=O)N[C@@H](CCCCN)C(=O)N[C@@H](CS)C(=O)N[C@@H](CS)C(=O)N[C@@H](CCCCN)C(=O)O [Pam-3] ({Palmitoyl-AEEA}-RGKAKCCK-OH; C-terminus assumed),effect on membrane potential (in words),S. aureus NCTC8325 [1],breakdown of the membrane potential in a concentration-dependent manner
same,LC99.9,E. faecium DSM2918 VRE,9.38 (4.87-9.38) μM
same,LC99.9,E. coli 6940 3-MRGN,9.38 µM
same,LC99.9,[2],9.38 µM
same,growth inhibition of colistin- and tigecycline-resistant isolate (in words),[3],inhibited the growth
same,LC99.9,S. aureus DSM20213 MRSA,9.38 (4.87-9.38) μM
same,pore formation (in words),S. aureus NCTC8325 [4],strong influx of PI
same,viable Citrobacter in colon content and colon tissue vs PBS (in words),[5]; Mann–Whitney p = 0.0010 and p = 0.0104,significantly reduced
same,bacteria in cecum content and cecum tissue vs PBS (in words),[5]; Mann–Whitney p = 0.0104 and p = 0.0473,reduced the number of bacteria
same,C. rodentium in cecum content,[5]; [6],20533880 CFU/g and 455636 CFU/g and 278413400 CFU/g and 15654650 CFU/g and 366007 CFU/g and 16133443 CFU/g and 143723333 CFU/g and 2819342 CFU/g and 262402624 CFU/g and 251094891 CFU/g and 226500566 CFU/g
same,C. rodentium in cecum tissue,[5]; [6],490000 CFU/g and 307086614 CFU/g and 556897 CFU/g and 3530864 CFU/g and 21702128 CFU/g and 74039735 CFU/g and 1204147 CFU/g and 780234 CFU/g and 18903800 CFU/g and 586941 CFU/g and 191336 CFU/g
same,C. rodentium in colon content,[5]; [6],1762185 CFU/g and 60751515 CFU/g and 1789819 CFU/g and 315018315 CFU/g and 310211946 CFU/g and 1173126615 CFU/g and 2621359 CFU/g and 289220 CFU/g and 25236170 CFU/g and 708075 CFU/g and 1616071 CFU/g
same,C. rodentium in colon tissue,[5]; [6],58623.6 CFU/g and 30241621 CFU/g and 100000 CFU/g and 24432209 CFU/g and 42962357 CFU/g and 13239974 CFU/g and 61561.6 CFU/g and 13820.3 CFU/g and 2719752 CFU/g and 44329.9 CFU/g and 628386 CFU/g
same,elimination of bacteria in biofilms (in words),"P. aeruginosa PAO1; 300 µM, within 1 h, Kruskal–Wallis p = 0.0074",eliminated
same,viable bacteria in biofilm,"P. aeruginosa PAO1; 9.375 µM Pam-3, experiment 1",1541667
same,viable bacteria in biofilm,"P. aeruginosa PAO1; 9.375 µM Pam-3, experiment 2",3730000
same,viable bacteria in biofilm,"P. aeruginosa PAO1; 9.375 µM Pam-3, experiment 3",2210000
same,viable bacteria in biofilm,"P. aeruginosa PAO1; 18.75 µM Pam-3, experiment 1",800000
same,viable bacteria in biofilm,"P. aeruginosa PAO1; 18.75 µM Pam-3, experiment 2",125000
same,viable bacteria in biofilm,"P. aeruginosa PAO1; 18.75 µM Pam-3, experiment 3",1510000
same,viable bacteria in biofilm,"P. aeruginosa PAO1; 37.5 µM Pam-3, experiment 1",70000
same,viable bacteria in biofilm,"P. aeruginosa PAO1; 37.5 µM Pam-3, experiment 2",21111
same,viable bacteria in biofilm,"P. aeruginosa PAO1; 37.5 µM Pam-3, experiment 3",362889
same,viable bacteria in biofilm,"P. aeruginosa PAO1; 75 µM Pam-3, experiment 1",1100
same,viable bacteria in biofilm,"P. aeruginosa PAO1; 75 µM Pam-3, experiment 2",67067
same,viable bacteria in biofilm,"P. aeruginosa PAO1; 75 µM Pam-3, experiment 3",5525
same,viable bacteria in biofilm,"P. aeruginosa PAO1; 150 µM Pam-3, experiment 1",333
same,viable bacteria in biofilm,"P. aeruginosa PAO1; 150 µM Pam-3, experiment 2",433
same,viable bacteria in biofilm,"P. aeruginosa PAO1; 150 µM Pam-3, experiment 3",167
same,viable bacteria in biofilm,"P. aeruginosa PAO1; 300 µM Pam-3, 1 = no growth, experiment 1",1
same,viable bacteria in biofilm,"P. aeruginosa PAO1; 300 µM Pam-3, 1 = no growth, experiment 2",1
same,viable bacteria in biofilm,"P. aeruginosa PAO1; 300 µM Pam-3, 1 = no growth, experiment 3",1
